Measurements as given in ChEMBL document CHEMBL1201862, “PubChem BioAssay data set” (2004).
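All cell lines were grown in 96-well plates and treated with compound for 48 hours. Here, GI50 denotes the concentration required for 50% inhibition of growth.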 The source made the active and inactive calls. Rule as the data show it: active = GI50 up to about 1.1 µM and inactive = higher.

Assays:
Assay in all cases: inhibition of tumour cell growth, NCI panel, 48 h
[1] = system: 786-0
[2] = system: A549
[3] = system: CAKI-1
[4] = system: CCRF-CEM
[5] = system: COLO 205
[6] = system: DU-145
[7] = system: EKVX
[8] = system: HCC 2998
[9] = system: HCT-15
[10] = system: HL-60
[11] = system: HOP-62
[12] = system: HT-29
[13] = system: IGROV-1
[14] = system: K562
[15] = system: KM12
[16] = system: LOX IMVI
[17] = system: M14
[18] = system: MCF7
[19] = system: MDA-MB-231
[20] = system: MDA-N
[21] = system: MOLT-4
[22] = system: Malme-3M
[23] = system: NCI-H23
[24] = system: OVCAR-8
[25] = system: PC-3
[26] = system: RPMI-8226
[27] = system: RXF 393
[28] = system: SF-295
[29] = system: SK-MEL-28
[30] = system: SK-MEL-5
[31] = system: SK-OV-3
[32] = system: SN12C
[33] = system: SNB-75
[34] = system: SR
[35] = system: SW-620
[36] = system: T47D
[37] = system: TK-10
[38] = system: UACC-257
[39] = system: UACC-62
[40] = system: MDA-MB-435
[41] = system: NCI-H522
[42] = system: OVCAR-3
[43] = system: OVCAR-5
[44] = system: SF-268
[45] = system: SF-539
[46] = system: U-251
[47] = system: A498
[48] = system: ACHN
[49] = system: HCT-116
[50] = system: HOP-92
[51] = system: Hs-578T
[52] = system: NCI-H226
[53] = system: NCI-H460
[54] = system: NCI/ADR-RES
[55] = system: OVCAR-4
[56] = system: SK-MEL-2
[57] = system: SNB-19
[58] = system: UO-31

CC(=O)OCC12CCC3C4(C)CCCC(C)(C)C4CCC3(C)C1CC(C1=CC(=O)OC1O)O2 (configuration not stated)
GI50 [1]: 1.09 µM (active) | GI50 [2]: 2.92 µM (inactive) | GI50 [3]: 1.49 µM (inactive) | GI50 [4]: 0.303 µM (active) | GI50 [5]: 1.83 µM (inactive) | GI50 [6]: 2.07 µM (inactive) | GI50 [7]: 2.43 µM (inactive) | GI50 [8]: 1.84 µM (inactive) | GI50 [9]: 0.92 µM | GI50 [10]: 0.513 µM (active) | GI50 [11]: 2.41 µM (inactive) | GI50 [12]: 1.3 µM (inactive) | GI50 [13]: 1.54 µM (inactive) | GI50 [14]: 0.776 µM (active) | GI50 [15]: 1.82 µM (inactive) | GI50 [16]: 1.18 µM (inactive) | GI50 [17]: 1.42 µM (inactive) | GI50 [18]: 1.24 µM (inactive) | GI50 [19]: 1.75 µM (inactive) | GI50 [20]: 1.53 µM (inactive) | GI50 [21]: 0.248 µM (active) | GI50 [22]: 1.05 µM (active) | GI50 [23]: 1.69 µM (inactive) | GI50 [24]: 1.38 µM (inactive) | GI50 [25]: 1.31 µM (inactive) | GI50 [26]: 0.428 µM (active) | GI50 [27]: 2.06 µM (inactive) | GI50 [28]: 2.34 µM (inactive) | GI50 [29]: 1.53 µM (inactive) | GI50 [30]: 1.86 µM (inactive) | GI50 [31]: 2.47 µM (inactive) | GI50 [32]: 1.34 µM (inactive) | GI50 [33]: 1.76 µM (inactive) | GI50 [34]: 0.244 µM (active) | GI50 [35]: 1.29 µM (inactive) | GI50 [36]: 1.88 µM (inactive) | GI50 [37]: 1.9 µM (inactive) | GI50 [38]: 1.91 µM (inactive) | GI50 [39]: 1.8 µM (inactive)

Cc1cc(/N=C/c2c(CO)cnc(C)c2O)c(/N=C/c2c(CO)cnc(C)c2O)cc1C
GI50 [4]: 17 µM (inactive) | GI50 [6]: > 100 µM (inactive) | GI50 [7]: > 100 µM (inactive) | GI50 [9]: > 100 µM | GI50 [14]: > 100 µM (inactive) | GI50 [18]: 75.9 µM (inactive) | GI50 [40]: > 100 µM (inactive) | GI50 [22]: > 100 µM (inactive) | GI50 [23]: > 100 µM (inactive) | GI50 [41]: 78.9 µM (inactive) | GI50 [42]: > 100 µM (inactive) | GI50 [43]: > 100 µM (inactive) | GI50 [25]: > 100 µM (inactive) | GI50 [27]: > 100 µM (inactive) | GI50 [44]: > 100 µM (inactive) | GI50 [45]: 95.9 µM (inactive) | GI50 [29]: > 100 µM (inactive) | GI50 [31]: > 100 µM (inactive) | GI50 [32]: > 100 µM (inactive) | GI50 [35]: > 100 µM (inactive) | GI50 [36]: > 100 µM (inactive) | GI50 [46]: > 100 µM (inactive) | GI50 [38]: > 100 µM (inactive)

O=C(Cc1ccccc1)NN1C(=O)/C(=C\c2cccc([N+](=O)[O-])c2)S/C1=N\c1ccccc1
GI50 [1]: > 100 µM (inactive) | GI50 [47]: > 100 µM (inactive) | GI50 [2]: > 100 µM (inactive) | GI50 [48]: > 100 µM (inactive) | GI50 [5]: > 100 µM (inactive) | GI50 [6]: > 100 µM (inactive) | GI50 [7]: > 100 µM (inactive) | GI50 [8]: > 100 µM (inactive) | GI50 [49]: > 100 µM (inactive) | GI50 [9]: > 100 µM | GI50 [11]: > 100 µM (inactive) | GI50 [50]: 44 µM (inactive) | GI50 [12]: > 100 µM (inactive) | GI50 [51]: > 100 µM (inactive) | GI50 [13]: > 100 µM (inactive) | GI50 [14]: > 100 µM (inactive) | GI50 [15]: > 100 µM (inactive) | GI50 [17]: > 100 µM (inactive) | GI50 [18]: 34.7 µM (inactive) | GI50 [19]: > 100 µM (inactive) | GI50 [40]: > 100 µM (inactive) | GI50 [20]: > 100 µM (inactive) | GI50 [21]: 42.5 µM (inactive) | GI50 [52]: > 100 µM (inactive) | GI50 [23]: > 100 µM (inactive) | GI50 [53]: > 100 µM (inactive) | GI50 [54]: > 100 µM (inactive) | GI50 [42]: > 100 µM (inactive) | GI50 [55]: > 100 µM (inactive) | GI50 [43]: > 100 µM (inactive) | GI50 [24]: > 100 µM (inactive) | GI50 [26]: > 100 µM (inactive) | GI50 [27]: > 100 µM (inactive) | GI50 [44]: > 100 µM (inactive) | GI50 [28]: > 100 µM (inactive) | GI50 [45]: > 100 µM (inactive) | GI50 [29]: > 100 µM (inactive) | GI50 [56]: > 100 µM (inactive) | GI50 [30]: > 100 µM (inactive) | GI50 [31]: > 100 µM (inactive) | GI50 [32]: > 100 µM (inactive) | GI50 [57]: > 100 µM (inactive) | GI50 [33]: > 100 µM (inactive) | GI50 [35]: > 100 µM (inactive) | GI50 [36]: > 100 µM (inactive) | GI50 [37]: > 100 µM (inactive) | GI50 [46]: > 100 µM (inactive) | GI50 [38]: > 100 µM (inactive) | GI50 [39]: > 100 µM (inactive) | GI50 [58]: > 100 µM (inactive)
